For experiment [1], the target named is T1, human muscarinic acetylcholine M3 receptor (Homo sapiens, UniProt P20309).
T1 construct: expressed in transfected cells; host or cells: CHO-K1 (Chinese Hamster Ovary) cell membranes
The experiment in a line: Muscarinic 3 receptor binding assay ([3H]NMS competition, SPA), single concentration 1 μM. The settings on record: 1 μM compound; % inhibition specific [3H]-NMS binding. In a few lines: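 CHO-K1 membranes expressing human M3 on SPA beads, competition with 0.1 nM [3H]NMS (quarter Kd) in 20 mM HEPES pH 7.4, 5 mM MgCl2, 0.1% BSA, 1% DMSO; compound at 1 μM. 16 h at room temperature. Value is % inhibition of specific binding, non-specific defined with 1 μM atropine.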

For experiment [2], the target named is T2, Adrenergic β2 (Homo sapiens, UniProt P07550).
T2 construct: Adherent H292 cells are removed from tissue culture flasks by treatment with Accutase™ cell detachment solution; endogenous in cells; host or cells: H292 cells
T2 sequence (P07550 whole entry): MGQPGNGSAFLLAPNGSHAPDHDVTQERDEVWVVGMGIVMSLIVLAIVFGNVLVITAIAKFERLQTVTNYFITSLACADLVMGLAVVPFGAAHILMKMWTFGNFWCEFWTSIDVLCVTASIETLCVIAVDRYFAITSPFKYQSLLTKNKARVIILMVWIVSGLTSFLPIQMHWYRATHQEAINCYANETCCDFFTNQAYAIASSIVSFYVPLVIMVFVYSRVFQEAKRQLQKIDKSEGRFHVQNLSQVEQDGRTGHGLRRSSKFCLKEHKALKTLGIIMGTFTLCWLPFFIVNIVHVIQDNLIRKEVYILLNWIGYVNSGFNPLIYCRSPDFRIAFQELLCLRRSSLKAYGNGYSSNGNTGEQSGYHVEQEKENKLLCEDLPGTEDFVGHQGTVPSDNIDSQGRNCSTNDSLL
The experiment in a line: Adrenergic β2 mediated cAMP production in H292 cells (AlphaScreen), concentration response. In kind it is cell-based. The settings on record: for EC50: 60 min, 300 μM rolipram, read-out: β2 pEC50 (converted); for β2 Intrinsic Activity: fraction relative to the maximum activity determined for formoterol. Put shortly:
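H292 cells seeded overnight, pretreated 10 min with rolipram (300 μM final), then exposed to compounds 60 min at room temperature in HBSS/10 mM HEPES pH 7.4/5 mM glucose, 1% DMSO. Lysate cAMP quantified by AlphaScreen against a standard curve; four-parameter fit gives pEC50 and intrinsic activity relative to formoterol maximum.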
On the technique in general: Changes in cAMP serve as a functional read-out for many G protein-coupled receptors.

In experiment [3] the target is T1, human muscarinic acetylcholine M3 receptor. Briefly: Muscarinic 3 receptor binding assay ([3H]NMS competition, SPA), pIC50. The settings on record: [3H]NMS 0.1 nM, CHO-K1 cell membranes expressing human M3 receptor. In a few lines:
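Competition of [3H]NMS (0.1 nM, quarter Kd) binding to CHO-K1 membranes expressing human M3, SPA format, in 20 mM HEPES pH 7.4, 5 mM MgCl2, 0.1% BSA, 1% DMSO. Incubated 16 h at room temperature; non-specific binding with 1 μM atropine; pIC50 from specific binding.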

Experiment [4] addresses T2, Adrenergic β2. Briefly: Adrenergic β2 mediated cAMP production in H292 cells, single concentration 1 μM. The class given is cell-based. The settings on record: NCI-H292, 1 μM compound, cAMP as percentage of the maximum response generated by 1E-07M formoterol, read-out: β2 % effect @1 uM. Put shortly: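 H292 cells pretreated with rolipram (300 μM final) 10 min, then compound at 1 μM final, 1% DMSO, 60 min at room temperature in HBSS/10 mM HEPES pH 7.4/5 mM glucose. Lysate cAMP quantified by AlphaScreen against a standard curve, as % of maximal response to 1E-07M formoterol.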

T1 sequence (P20309 whole entry): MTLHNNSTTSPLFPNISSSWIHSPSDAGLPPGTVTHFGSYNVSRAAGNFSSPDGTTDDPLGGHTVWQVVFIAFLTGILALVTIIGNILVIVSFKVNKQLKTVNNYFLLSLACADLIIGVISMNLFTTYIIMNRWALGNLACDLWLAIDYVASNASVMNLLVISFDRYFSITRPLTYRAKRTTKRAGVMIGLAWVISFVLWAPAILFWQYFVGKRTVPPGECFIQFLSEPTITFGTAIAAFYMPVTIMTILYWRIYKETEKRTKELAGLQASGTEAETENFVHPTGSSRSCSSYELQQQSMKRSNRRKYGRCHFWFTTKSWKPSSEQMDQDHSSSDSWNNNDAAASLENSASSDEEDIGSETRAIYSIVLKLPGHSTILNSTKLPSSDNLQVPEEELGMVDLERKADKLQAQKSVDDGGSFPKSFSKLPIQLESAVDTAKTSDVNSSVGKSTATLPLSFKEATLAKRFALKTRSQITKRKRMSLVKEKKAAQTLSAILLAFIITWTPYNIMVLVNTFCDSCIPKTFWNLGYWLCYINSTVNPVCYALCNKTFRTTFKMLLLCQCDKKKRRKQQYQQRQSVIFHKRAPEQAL

As usually defined, the inhibition is the share of the control response that was lost under treatment. One may read the IC50 as the concentration that inhibits the measured activity by half. As for `O=C1COc2c(CCNCCN(C(=O)CCOCCc3cccc(CN4CCC5(CC4)CN(C(=O)c4ccc(Cl)s4)CCO5)c3)C3CCCCC3)ccc(O)c2N1` [Example 106, 3-(3-((4-(5-Chlorothiophene-2-carbonyl)-1-oxa-4,9-diazaspiro[5.5]undecan-9-yl)methyl)phenethoxy)-N-cyclohexyl-N-(2-(2-(5-hydroxy-3-oxo-3,4-dihydro-2H-benzo[b][1,4]oxazin-8-yl)ethylamino)ethyl)propanamide], the inhibition at 1 µM in experiment [1] stood at 100%. On Adrenergic β2 [2], the EC50 was 50.1 nM and the “β2 Intrinsic Activity” value is given as 1.0. Also, the concentration for half-maximal inhibition (IC50) in experiment [3] was 0.631 nM. Moreover, the percent of formoterol maximum response at 1 µM at Adrenergic β2 [4] was 102%.
For the compound `O=C1COc2c(CCNCCN(C(=O)CCOCCc3cccc(CN4CCC5(CC4)CN(C(=O)C4COc6ccccc6O4)CCO5)c3)C3CCCCC3)ccc(O)c2N1` (stereo not drawn) [Example 115, N-Cyclohexyl-3-(3-((4-(2,3-dihydrobenzo[b][1,4]dioxine-2-carbonyl)-1-oxa-4,9-diazaspiro[5.5]undecan-9-yl)methyl)phenethoxy)-N-(2-(2-(5-hydroxy-3-oxo-3,4-dihydro-2H-benzo[b][1,4]oxazin-8-yl)ethylamino)ethyl)propanamide], the inhibition at 1 µM in experiment [1] was 100%. Moreover, at Adrenergic β2 [2], the EC50 is 126 nM and the “β2 Intrinsic Activity” value was 0.6. In experiment [3], this compound had an IC50 of 0.158 nM. Moreover, the percent of formoterol maximum response at 1 µM at Adrenergic β2 [4] turned out to be 93%.
The compound `O=C1COc2c(CCNCCN(C(=O)CCOCCc3cccc(CN4CCC5(CC4)CN(C(=O)c4cnc6ccccc6n4)CCO5)c3)C3CCCCC3)ccc(O)c2N1` [Example 119, N-Cyclohexyl-N-(2-(2-(5-hydroxy-3-oxo-3,4-dihydro-2H-benzo[b][1,4]oxazin-8-yl)ethylamino)ethyl)-3-(3-((4-(quinoxaline-2-carbonyl)-1-oxa-4,9-diazaspiro[5.5]undecan-9-yl)methyl)phenethoxy)propanamide] gave an inhibition at 1 µM in experiment [1] of 100%. For the same compound, at Adrenergic β2 [2], the EC50 is 158 nM and the “β2 Intrinsic Activity” value is more than 0.9. The same compound gave an IC50 in experiment [3] of 2 nM. Also, the percent of formoterol maximum response at 1 µM at Adrenergic β2 [4] worked out at 84%.
In turn, `O=C1COc2c(CCNCCN(C(=O)CCOCCc3cccc(CN4CCC5(CC4)CN(C(=O)C(O)c4ccccc4Cl)CCO5)c3)C3CCCCC3)ccc(O)c2N1` (stereo not drawn) [Example 128, 3-(3-((4-(2-(2-Chlorophenyl)-2-hydroxyacetyl)-1-oxa-4,9-diazaspiro[5.5]undecan-9-yl)methyl)phenethoxy)-N-cyclohexyl-N-(2-(2-(5-hydroxy-3-oxo-3,4-dihydro-2H-benzo[b][1,4]oxazin-8-yl)ethylamino)ethyl)propanamide] had an inhibition at 1 µM in experiment [1] of 99%. In experiment [3], this compound showed an IC50 of 1 nM. Further, the percent of formoterol maximum response at 1 µM at Adrenergic β2 [4] is 125%.
`Cc1csc(C(=O)N2CCOC3(CCN(Cc4cccc(CCOCCC(=O)N(CCNCCc5ccc(O)c6c5OCC(=O)N6)C5CCCCC5)c4)CC3)C2)c1` [Example 138, N-Cyclohexyl-N-(2-(2-(5-hydroxy-3-oxo-3,4-dihydro-2H-benzo[b][1,4]oxazin-8-yl)ethylamino)ethyl)-3-(3-((4-(4-methythiophene-2-carbonyl)-1-oxa-4,9-diazaspiro[5.5]undecan-9-yl)methyl)phenethoxy)propanamide] yielded an inhibition at 1 µM in experiment [1] of 100%. Besides, at Adrenergic β2 [2], the EC50 was 126 nM and the “β2 Intrinsic Activity” value came to 0.9. Besides, the IC50 in experiment [3] was 0.2 nM. Also, the percent of formoterol maximum response at 1 µM at Adrenergic β2 [4] is 92%.
As for `O=C1COc2c(CCNCCN(C(=O)CCOCCc3cccc(CN4CCC5(CC4)CN(C(=O)Cc4ccc6c(c4)OCO6)CCO5)c3)C3CCCCC3)ccc(O)c2N1` [Example 140, 3-(3-((4-(2-(Benzo[d][1,3]dioxol-5-yl)acetyl)-1-oxa-4,9-diazaspiro[5.5]undecan-9-yl)methyl)phenethoxy)-N-cyclohexyl-N-(2-(2-(5-hydroxy-3-oxo-3,4-dihydro-2H-benzo[b][1,4]oxazin-8-yl)ethylamino)ethyl)propanamide], the inhibition at 1 µM in experiment [1] turned out to be 100%. For the same compound, on Adrenergic β2 [2], the EC50 was 200 nM and the “β2 Intrinsic Activity” value was found to be 1.0. The compound further had an IC50 in experiment [3] of 1 nM. The percent of formoterol maximum response at 1 µM on Adrenergic β2 [4] is 100%.
Regarding `CCc1cc(C(=O)N2CCOC3(CCN(Cc4cccc(CCOCCC(=O)N(CCNCCc5ccc(O)c6c5OCC(=O)N6)C5CCCCC5)c4)CC3)C2)cs1` [Example 144, N-Cyclohexyl-3-(3-((4-(5-ethylthiophene-3-carbonyl)-1-oxa-4,9-diazaspiro[5.5]undecan-9-yl)methyl)phenethoxy)-N-(2-(2-(5-hydroxy-3-oxo-3,4-dihydro-2H-benzo[b][1,4]oxazin-8-yl)ethylamino)ethyl)propanamide], the inhibition at 1 µM in experiment [1] was 100%. Moreover, on Adrenergic β2 [2], the EC50 is 39.8 nM and the “β2 Intrinsic Activity” value amounted to 1.0. In experiment [3], the half-maximal inhibitory concentration (IC50) was 0.158 nM. The percent of formoterol maximum response at 1 µM at Adrenergic β2 [4] turned out to be 100%.
As for `O=C1COc2c(CCNCCN(C(=O)CCOCCc3cccc(CN4CCC5(CC4)CN(C(=O)c4cc6ccccn6n4)CCO5)c3)C3CCCCC3)ccc(O)c2N1` [Example 146, N-Cyclohexyl-N-(2-(2-(5-hydroxy-3-oxo-3,4-dihydro-2H-benzo[b][1,4]oxazin-8-yl)ethylamino)ethyl)-3-(3-((4-(pyrazolo[1,5-a]pyridine-2-carbonyl)-1-oxa-4,9-diazaspiro[5.5]undecan-9-yl)methyl)phenethoxy)propanamide], in experiment [1], the inhibition at 1 µM is 100%. Moreover, on Adrenergic β2 [2], the EC50 is 79.4 nM and the “β2 Intrinsic Activity” value is recorded as 0.9. The compound further gave an IC50 in experiment [3] of 0.398 nM. Also, the percent of formoterol maximum response at 1 µM at Adrenergic β2 [4] was 96%.
In the same order, the values of `CC(C)c1cc(C(=O)N2CCOC3(CCN(Cc4cccc(CCOCCC(=O)N(CCNCCc5ccc(O)c6c5OCC(=O)N6)C5CCCCC5)c4)CC3)C2)no1` [Example 147, N-Cyclohexyl-N-(2-(2-(5-hydroxy-3-oxo-3,4-dihydro-2H-benzo[b][1,4]oxazin-8-yl)ethylamino)ethyl)-3-(3-((4-(5-isopropylisoxazole-3-carbonyl)-1-oxa-4,9-diazaspiro[5.5]undecan-9-yl)methyl)phenethoxy)propanamide] are 99%, 158 nM, 1.0, 1.58 nM and 107%.
For `CCOc1ccccc1CC(=O)N1CCOC2(CCN(Cc3cccc(CCOCCC(=O)N(CCNCCc4ccc(O)c5c4OCC(=O)N5)C4CCCCC4)c3)CC2)C1` [Example 170, N-Cyclohexyl-3-(3-((4-(2-(2-ethoxyphenyl)acetyl)-1-oxa-4,9-diazaspiro[5.5]undecan-9-yl)methyl)phenethoxy)-N-(2-(2-(5-hydroxy-3-oxo-3,4-dihydro-2H-benzo[b][1,4]oxazin-8-yl)ethylamino)ethyl)propanamide], in experiment [1], the inhibition at 1 µM was determined as 98%. Further, the percent of formoterol maximum response at 1 µM at Adrenergic β2 [4] turned out to be 112%.
Consider `COC(C(=O)N1CCOC2(CCN(Cc3cccc(CCOCCC(=O)N(CCNCCc4ccc(O)c5c4OCC(=O)N5)C4CCCCC4)c3)CC2)C1)c1ccccc1` (stereo not drawn) [Example 171, N-Cyclohexyl-N-(2-(2-(5-hydroxy-3-oxo-3,4-dihydro-2H-benzo[b][1,4]oxazin-8-yl)ethylamino)ethyl)-3-(3-((4-(2-methoxy-2-phenylacetyl)-1-oxa-4,9-diazaspiro[5.5]undecan-9-yl)methyl)phenethoxy)propanamide], for which the inhibition at 1 µM in experiment [1] was 96%. Also, on Adrenergic β2 [4], the percent of formoterol maximum response at 1 µM was 94%.
In experiment [1], `Cc1ccc2nc(C(=O)N3CCOC4(CCN(Cc5cccc(CCOCCC(=O)N(CCNCCc6ccc(O)c7c6OCC(=O)N7)C6CCCCC6)c5)CC4)C3)cn2c1` [Example 172, N-Cyclohexyl-N-(2-(2-(5-hydroxy-3-oxo-3,4-dihydro-2H-benzo[b][1,4]oxazin-8-yl)ethylamino)ethyl)-3-(3-((4-(6-methylimidazo[1,2-a]pyridine-2-carbonyl)-1-oxa-4,9-diazaspiro[5.5]undecan-9-yl)methyl)phenethoxy)propanamide] yielded an inhibition at 1 µM of 91%. The percent of formoterol maximum response at 1 µM at Adrenergic β2 [4] was 94%.
The like results for `COCCOc1ccc(C(=O)N2CCOC3(CCN(Cc4cccc(CCOCCC(=O)N(CCNCCc5ccc(O)c6c5OCC(=O)N6)C5CCCCC5)c4)CC3)C2)cc1` [Example 173, N-Cyclohexyl-N-(2-(2-(5-hydroxy-3-oxo-3,4-dihydro-2H-benzo[b][1,4]oxazin-8-yl)ethylamino)ethyl)-3-(3-((4-(4-(2-methoxyethoxy)benzoyl)-1-oxa-4,9-diazaspiro[5.5]undecan-9-yl)methyl)phenethoxy)propanamide] were, in that order, 95% and 82%.

(Values after patent publication US8476265B2, “Compounds-801” (AstraZeneca AB, priority 2010, dated 2013).)
